This is an account of results in paper PMC7216583 (Parasites & Vectors, 2020).

SMILES strings stand for the structures. Where a name gives a salt, the structure may show the parent alone.

The subject of one test is DNA-PK. Also on record: method as in S-inhibitor catalog. As to conditions: vendor brief description; ref S-inhibitor catalog; cited from earlier work.
For test [1], the system named is Toxoplasma gondii RH-2F tachyzoites. As to the kind of experiment: microbe, parasite or virus in culture. As to conditions: 72 h, read-out: Parasite inhibition (%) mean, preliminary screen of compound library, mean.
The test system of the next test is PI3K. Also on record: method as in S-inhibitor catalog. The following applies: vendor brief description; ref S-inhibitor catalog; cited from earlier work.
The subject of a further test is human DGAT-1. Also on record: method as in S-inhibitor catalog. As to conditions: vendor brief description; ref S-inhibitor catalog; cited from earlier work.
Another test deals with mouse DGAT-1. Set-up: method as in S-inhibitor catalog. The following applies: vendor brief description; ref S-inhibitor catalog; cited from earlier work.
The next test deals with α7 nAChR. Also on record: method as in S-inhibitor catalog. The following applies: in α7*-expressing SH-EP1 cells; vendor brief description; ref S-inhibitor catalog; read-out: EC50, α7 nAChR positive allosteric modulation; cited from earlier work.
Another test addresses PKA. Also on record: method as in S-inhibitor catalog. The following applies: vendor brief description; ref S-inhibitor catalog; cited from earlier work.
In a further test the target is 5-HT Receptor. Also on record: method as in S-inhibitor catalog. As to conditions: vendor brief description; ref S-inhibitor catalog; cited from earlier work.
The target of the next test is muscarinic receptor. Set-up: method as in S-inhibitor catalog. The following applies: vendor brief description; ref S-inhibitor catalog; read-out: Kb, muscarinic receptor antagonist; cited from earlier work.
The test system of the next test is Akt2. Set-up: method as in S-inhibitor catalog. The following applies: vendor brief description; ref S-inhibitor catalog; cited from earlier work.
A further test concerns LXRα-GAL4. Set-up: method as in S-inhibitor catalog. The following applies: vendor brief description; ref S-inhibitor catalog; cited from earlier work.
Another test relates to LXRα/SRC1. Also on record: method as in S-inhibitor catalog. As to conditions: vendor brief description; ref S-inhibitor catalog; read-out: EC50, LXRα/SRC1 LiSA; cited from earlier work.
Test [2] has as its target hydroxymethylglutaryl coenzyme A reductase (HMGCR). Also on record: method as in S-inhibitor catalog. As to conditions: vendor brief description; ref S-inhibitor catalog; cited from earlier work.
The test system of a further test is FAAH. Set-up: method as in S-inhibitor catalog. The following applies: vendor brief description; ref S-inhibitor catalog; cited from earlier work.
The next test has as its target 5-HT1D. Also on record: method as in S-inhibitor catalog. The following applies: vendor brief description; ref S-inhibitor catalog; cited from earlier work.
The target in another test is p110β. Set-up: method as in S-inhibitor catalog. As to conditions: vendor brief description; ref S-inhibitor catalog; cited from earlier work.
For test [3], the target named is Aβ40 production (γ-secretase). Also on record: method as in S-inhibitor catalog. As to conditions: in human SH-SY5Y cells; vendor brief description; ref S-inhibitor catalog; read-out: IC50, reduction of Aβ40 production; cited from earlier work.
In test [4] the target is HIV-1 gp120 / CD4 receptor. Also on record: method as in S-inhibitor catalog. The following applies: in virus; vendor brief description; ref S-inhibitor catalog; read-out: EC50, inhibition of binding of HIV-1 gp120 to CD4 receptor; cited from earlier work.
The test system of a further test is GPR40. Set-up: method as in S-inhibitor catalog. The following applies: vendor brief description; ref S-inhibitor catalog; read-out: EC50, GPR40 agonist; cited from earlier work.
For another test, the target named is HSP90. Also on record: method as in S-inhibitor catalog. The following applies: vendor brief description; ref S-inhibitor catalog; cited from earlier work.
The test system of the next test is Her-2 degradation. Also on record: method as in S-inhibitor catalog. The following applies: vendor brief description; ref S-inhibitor catalog; cited from earlier work.
The subject of the next test is MEK2. Set-up: method as in S-inhibitor catalog. As to conditions: vendor brief description; ref S-inhibitor catalog; cited from earlier work.
The next test concerns MDMX. Set-up: method as in S-inhibitor catalog. The following applies: vendor brief description; ref S-inhibitor catalog; read-out: IC50, MDMX suppression; cited from earlier work.

One may read the IC50 as the concentration needed to halve the response being measured. On to `O=c1cc(N2CCOCC2)oc2c(-c3cccc4c3sc3ccccc34)cccc12` [NU7441 (KU-57788)], for which the values for the IC50 in the test on DNA-PK and in the test on PI3K were 14 nM and 5000 nM, respectively. The inhibition of growth at 5 µM in [1] turned out to be 21.5%.
In the case of `O=C(Nc1ccccc1)Nc1ccc(-c2ccc(C(=O)[C@@H]3CCC[C@@H]3C(=O)O)cc2)cc1` [A 922500], the figures for the IC50 in the test on human DGAT-1 and with mouse DGAT-1 were 7 nM and 24 nM, respectively. In [1], the inhibition of growth at 5 µM was determined as 2%.
For `COc1cc(OC)c(NC(=O)Nc2cc(C)on2)cc1Cl` [PNU-120596], in [1], the inhibition of growth at 5 µM is -38.8%. The EC50 with α7 nAChR is 216 nM.
As usually defined, the Ki is the dissociation constant of the complex between target and ligand, obtained from inhibition or displacement. For `Cc1n[nH]c2ccc(-c3cncc(OC[C@@H](N)Cc4ccccc4)c3)cc12` [A-674563], the Ki on PKA was 16 nM. In test [1], the inhibition of growth at 5 µM amounted to 67.7%.
On to `COc1ccccc1N1CCN(CCN(C(=O)C2CCCCC2)c2ccccn2)CC1` [WAY-100635 HCl], for which the inhibition of growth at 5 µM in [1] is -0.7%. For the same molecule, the IC50 at 5-HT Receptor was 0.95 nM.
One may read the Kb as the equilibrium dissociation constant of an antagonist, usually derived from a functional assay. `CC(C)N(CC[C@H](c1ccccc1)c1cc(CO)ccc1O)C(C)C` [5-hydroxymethyl tolterodine (PNU 200577)]: the Kb on muscarinic receptor is 0.84 nM. Further, the inhibition of growth at 5 µM in test [1] is -18.8%.
In the case of `NC1(Cc2ccc(Cl)cc2)CCN(c2ncnc3[nH]ccc23)CC1` [CCT128930], the inhibition of growth at 5 µM in test [1] is -25.6%. Also, the IC50 with Akt2 is […].
Take `O=C(O)Cc1cccc(OCCCN(Cc2cccc(C(F)(F)F)c2Cl)CC(c2ccccc2)c2ccccc2)c1` [GW3965 HCl]: the EC50 with LXRα-GAL4 is 190 nM; in the test on LXRα/SRC1 it was 125 nM. Further, in test [1], the inhibition of growth at 5 µM was -20.1%.
As for `CCC(C)(Oc1ccc(C2(c3ccc(OC(C)(CC)C(=O)O)cc3)CCCCC2)cc1)C(=O)O` (stereo not shown) [Clinofibrate], in test [2], the IC50 is 470000 nM. Further, the inhibition of growth at 5 µM in [1] amounted to 0.1%.
Consider `NC(=O)c1cccc(-c2cccc(OC(=O)NC3CCCCC3)c2)c1` [URB597], for which the inhibition of growth at 5 µM in [1] stood at 2.1%. Moreover, the IC50 with FAAH was 4.6 nM.
On to `CC1(C)C(=O)N(CCN2CCC(C(=O)c3ccc(F)cc3)CC2)c2ccccc21` [LY310762], for which the Ki at 5-HT1D was approximately 200 nM. Moreover, in test [1], the inhibition of growth at 5 µM is 1.5%.
On to `COc1ncc(-c2ccc3nccc(-c4ccnnc4)c3c2)cc1NS(=O)(=O)c1ccc(F)cc1F` [GSK2126458], for which, on p110β, the Ki is […]. In addition, in test [1], the inhibition of growth at 5 µM was determined as 21.3%.
Turning to `O=C(O)CC[C@H]1CC[C@@](c2cc(F)ccc2F)(S(=O)(=O)c2ccc(Cl)cc2)CC1` [MK-0752], the IC50 in [3] was 5 nM. For the same molecule, the inhibition of growth at 5 µM in test [1] worked out at 7.5%.
`COc1cc[nH]c2ncc(C(=O)C(=O)N3CCN(C(=O)c4ccccc4)C[C@H]3C)c1-2` [BMS-806 (BMS 378806)]: the EC50 in test [4] is 0.85 to 26.5 nM. Moreover, the inhibition of growth at 5 µM in test [1] worked out at 0.3%.
As to `Cc1cc(OCCCS(C)(=O)=O)cc(C)c1-c1cccc(COc2ccc3c(c2)OC[C@H]3CC(=O)O)c1` [TAK-875], the EC50 in the test with GPR40 is […]. Moreover, in test [1], the inhibition of growth at 5 µM was -10.4%.
The Kd is the equilibrium constant for the complex coming apart. On to `CC1(C)CC(=O)c2c(C(F)(F)F)nn(-c3ccc(C(N)=O)c(N[C@H]4CC[C@H](OC(=O)CN)CC4)c3)c2C1` [PF-04929113 (SNX-5422)], for which, on HSP90, the Kd was 41 nM. The inhibition of growth at 5 µM in [1] worked out at 4.6%. In addition, in the test on Her-2 degradation, the IC50 was 37 nM.
As for `CC(=O)Nc1cccc(-n2c(=O)n(C3CC3)c(=O)c3c(Nc4ccc(I)cc4F)n(C)c(=O)c(C)c32)c1` [GSK1120212 (Trametinib)], the IC50 in the test on MEK2 is […]. Further, in test [1], the inhibition of growth at 5 µM is -8.7%.
For the molecule `CN1CCN(c2ccc([N+](=O)[O-])c3no[n+]([O-])c23)CC1` [NSC-207895 (XI-006)], the IC50 with MDMX is 2500 nM. In addition, the inhibition of growth at 5 µM in test [1] turned out to be 0.2%.
